pIC50: −log10 of the molar value.

The first assay deals with T1, Cholecystokinin receptor type A (Rattus norvegicus, UniProt P30551).
T1 sequence (P30551 whole entry): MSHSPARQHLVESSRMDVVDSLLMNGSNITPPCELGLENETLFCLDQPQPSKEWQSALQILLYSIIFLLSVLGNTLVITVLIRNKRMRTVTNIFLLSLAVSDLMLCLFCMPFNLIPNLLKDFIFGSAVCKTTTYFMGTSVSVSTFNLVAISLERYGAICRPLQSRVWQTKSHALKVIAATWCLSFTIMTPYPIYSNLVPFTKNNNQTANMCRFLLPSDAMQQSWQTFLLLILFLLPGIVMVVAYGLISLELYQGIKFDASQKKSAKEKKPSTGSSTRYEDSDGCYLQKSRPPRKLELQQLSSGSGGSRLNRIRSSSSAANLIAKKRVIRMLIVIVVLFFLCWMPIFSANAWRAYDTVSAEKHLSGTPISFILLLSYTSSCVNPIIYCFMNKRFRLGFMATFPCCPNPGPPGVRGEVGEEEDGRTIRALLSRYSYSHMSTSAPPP
Nature of the assay: Tested for its activity to inhibit the binding of [125I]CCK-33 to Cholecystokinin type A receptor in rat pancreas.
In turn, `O=C(Nc1ccc(Cl)cc1)Nc1cc2c3ccccc3nc-2c[nH]1` gave a pIC50 of 7.07. Turning to `CN1C(=O)C(NC(=O)Cc2c[nH]c3ccccc23)N=C(c2ccccc2)c2ccccc21` (stereo unspecified), the pIC50 is 6.00. Against the preceding compound, the pIC50 is 1.07 log units lower.

For the compound `O=C(Cc1ccccc1)Nc1cc2c3ccccc3nc-2c[nH]1`, the pIC50 was 7.40.

For `O=C(Cc1c[nH]c2ccccc12)Nc1cc2c3ccccc3nc-2c[nH]1`, the pIC50 is 7.62.

On to `CN1C(=O)[C@@H](NC(=O)Nc2cc3c4ccccc4nc-3c[nH]2)N=C(c2ccccc2)c2ccccc21`, for which the pIC50 was 6.96. Same read-out and setting: for `Cn1c(C(=O)Nc2cc3c4ccccc4nc-3c[nH]2)cc2ccccc21` the value was 6.15. In turn, `Nc1cc2c(cn1)[nH]c1ccccc12` had a negative-log IC50 (pIC50) of under 4.00. Compound `O=C(Nc1cc2c3ccccc3nc-2c[nH]1)c1ccccc1` showed a negative-log IC50 (pIC50) of 5.15. For the compound `CN1C(=O)[C@H](NC(=O)Nc2cc3c4ccccc4nc-3c[nH]2)N=C(c2ccccc2)c2ccccc21`, the pIC50 is 7.05. The same measure, in the same setting: as for `O=C(Nc1cc2c3ccccc3nc-2c[nH]1)c1ccc(Cl)cc1`, the figure is 5.46; as for `COC(=O)c1cc2c(cn1)[nH]c1ccccc12` [BETA-CCM], under 4.00. `O=C(CCc1ccccc1)Nc1cc2c3ccccc3nc-2c[nH]1` showed a pIC50 of 6.48.

Target in the next assay: not listed separately
Nature of the assay: Tested for its activity to inhibit the binding of [125I]gastrin to gastric glands (gastrin) in guinea pig.
Consider `CN1C(=O)[C@@H](NC(=O)Nc2ccc(Cl)cc2)N=C(c2ccccc2)c2ccccc21`, for which the pIC50 was 6.27.

In turn, `CN1C(=O)[C@H](NC(=O)Nc2ccc(Cl)cc2)N=C(c2ccccc2)c2ccccc21` showed a pIC50 of 7.92.

Target in the next assay: not listed separately
Nature of the assay: Tested for its activity to inhibit the binding of [125I]CCK-33 to Cholecystokinin type B receptor in guinea pig brain.
Take `CN1C(=O)[C@@H](NC(=O)Nc2ccc(Cl)cc2)N=C(c2ccccc2)c2ccccc21`: the pIC50 was 6.39. Turning to `CN1C(=O)[C@H](NC(=O)Nc2ccc(Cl)cc2)N=C(c2ccccc2)c2ccccc21`, the negative logarithm of the IC50 (pIC50) was 8.26.

These data come from ChEMBL document CHEMBL1126472, “Multipurpose receptor ligands: -carboline cholecystokinin antagonists” (Bioorg Med Chem Lett, 1993).
